Assay results: ChEMBL document CHEMBL5500396, “Discovery, Multiparametric Optimization, and Solid-State Driven Identification of CHF-6550, a Novel Soft Dual Pharmacology Muscarinic Antagonist and β2 Agonist (MABA) for the Inhaled Treatment of Respiratory Diseases” (J Med Chem, 2024)

What was measured:
[1] = molecular target: Beta-2 adrenergic receptor (Cavia porcellus, UniProt Q8K4Z4); assay: Agonist activity at beta2 adrenoceptor in male albino Dunkin-Hartley guinea pig trachea assessed as inhibition of histamine induced smooth muscle contraction
Sequence of Beta-2 adrenergic receptor (Cavia porcellus, UniProt Q8K4Z4) (Q8K4Z4 whole entry): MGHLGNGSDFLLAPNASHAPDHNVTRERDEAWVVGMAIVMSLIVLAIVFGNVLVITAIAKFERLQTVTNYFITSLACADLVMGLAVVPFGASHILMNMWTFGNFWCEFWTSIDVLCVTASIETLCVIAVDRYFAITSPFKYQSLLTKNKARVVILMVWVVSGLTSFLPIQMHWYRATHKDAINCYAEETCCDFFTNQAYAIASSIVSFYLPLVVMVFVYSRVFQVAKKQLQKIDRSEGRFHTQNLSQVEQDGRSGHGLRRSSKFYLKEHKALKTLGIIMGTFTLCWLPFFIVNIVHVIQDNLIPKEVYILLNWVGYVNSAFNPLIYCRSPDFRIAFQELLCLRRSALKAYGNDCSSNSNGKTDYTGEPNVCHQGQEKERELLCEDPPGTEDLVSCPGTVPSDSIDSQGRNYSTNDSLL

Trachea = assay: Inhibition of carbachol-induced smooth muscle contraction in male albino Dunkin-Hartley guinea pig trachea; conditions: Cavia porcellus, read-out: pIC50 (converted)
Cavia porcellus [2] = assay: Inhibition of histamine induced bronchoconstriction in male albino Dunkin-Hartley guinea pig model at 0.3 nmol/kg, IT(Intratracheal) preadministered with compound followed by histamine addition at 5 to 30 mins and measured 1 hrs post compound treatment relative to control; conditions: read-out: INH
Cavia porcellus [3] = assay: Inhibition of acetylcholine induced bronchoconstriction in male albino Dunkin-Hartley guinea pig model at 0.3 nmol/kg, IT(Intratracheal) preadministered with compound followed by acetylcholine addition at 5 to 30 mins and measured 1 hrs post compound treatment relative to control; conditions: read-out: INH
Cavia porcellus [4] = assay: Bronchodilating effect in histamine induced male albino Dunkin-Hartley guinea pig model assessed as maximal efficacy at 0.3 nmol/kg, IT(Intratracheal) administered with compound followed by histamine addition at 5 to 30 mins and measured 1 hrs post compound treatment relative to control
Cavia porcellus [5] = assay: Bronchodilating effect in acetylcholine induced male albino Dunkin-Hartley guinea pig model assessed as maximal efficacy at 0.3 nmol/kg, IT(Intratracheal) administered with compound followed by acetylcholine addition at 5 to 30 mins and measured 1 hrs post compound treatment relative to control
[6] = Stability in guinea pig lung S9 fraction at 1 uM incubated for 60 mins by LC-MS/MS analysis
Cavia porcellus [7] = assay: Inhibition of histamine induced bronchoconstriction in male albino Dunkin-Hartley guinea pig model at 0.3 nmol/kg, IT(Intratracheal) preadministered with compound followed by histamine addition at 5 to 30 mins and measured 16 hrs post compound treatment relative to control; conditions: read-out: INH
Cavia porcellus [8] = assay: Inhibition of acetylcholine induced bronchoconstriction in male albino Dunkin-Hartley guinea pig model at 0.3 nmol/kg, IT(Intratracheal) preadministered with compound followed by acetylcholine addition at 5 to 30 mins and measured 16 hrs post compound treatment relative to control; conditions: read-out: INH
[9] = Half-life in guinea pig at 3 nmol/kg, IT(Intratracheal) administered as dry powder; conditions: in vivo, inhaled or intranasal
[10] = molecular target: Beta-2 adrenergic receptor (Homo sapiens, UniProt P07550)
Sequence of Beta-2 adrenergic receptor (Homo sapiens, UniProt P07550) (P07550 whole entry): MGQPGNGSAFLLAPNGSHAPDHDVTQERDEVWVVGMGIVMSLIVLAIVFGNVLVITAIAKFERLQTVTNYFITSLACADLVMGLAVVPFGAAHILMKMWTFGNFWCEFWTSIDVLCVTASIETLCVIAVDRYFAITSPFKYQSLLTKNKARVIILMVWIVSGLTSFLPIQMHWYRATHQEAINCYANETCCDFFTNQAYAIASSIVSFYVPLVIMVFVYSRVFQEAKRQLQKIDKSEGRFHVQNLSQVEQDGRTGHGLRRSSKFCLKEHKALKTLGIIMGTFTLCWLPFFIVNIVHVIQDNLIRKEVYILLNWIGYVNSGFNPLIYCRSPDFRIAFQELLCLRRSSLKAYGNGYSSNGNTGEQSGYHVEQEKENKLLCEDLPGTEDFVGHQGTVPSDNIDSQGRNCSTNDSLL
Description: Displacement of [125I]-Cyanopindolol from human beta2 adrenoceptor assessed as inhibition constant incubated for 1 hrs by Microbeta scintillation counter

[11] = molecular target: Voltage-gated inwardly rectifying potassium channel KCNH2 (Homo sapiens, UniProt Q12809)
Description: Inhibition of human ERG by patch clamp assay

[12] = molecular target: Sodium channel protein type 5 subunit alpha (Homo sapiens, UniProt Q14524)
Description: Inhibition of human Nav1.5

[13] = molecular target: Voltage-dependent L-type calcium channel subunit alpha-1C (Homo sapiens, UniProt Q13936)
Sequence of Voltage-dependent L-type calcium channel subunit alpha-1C (Q13936 whole entry): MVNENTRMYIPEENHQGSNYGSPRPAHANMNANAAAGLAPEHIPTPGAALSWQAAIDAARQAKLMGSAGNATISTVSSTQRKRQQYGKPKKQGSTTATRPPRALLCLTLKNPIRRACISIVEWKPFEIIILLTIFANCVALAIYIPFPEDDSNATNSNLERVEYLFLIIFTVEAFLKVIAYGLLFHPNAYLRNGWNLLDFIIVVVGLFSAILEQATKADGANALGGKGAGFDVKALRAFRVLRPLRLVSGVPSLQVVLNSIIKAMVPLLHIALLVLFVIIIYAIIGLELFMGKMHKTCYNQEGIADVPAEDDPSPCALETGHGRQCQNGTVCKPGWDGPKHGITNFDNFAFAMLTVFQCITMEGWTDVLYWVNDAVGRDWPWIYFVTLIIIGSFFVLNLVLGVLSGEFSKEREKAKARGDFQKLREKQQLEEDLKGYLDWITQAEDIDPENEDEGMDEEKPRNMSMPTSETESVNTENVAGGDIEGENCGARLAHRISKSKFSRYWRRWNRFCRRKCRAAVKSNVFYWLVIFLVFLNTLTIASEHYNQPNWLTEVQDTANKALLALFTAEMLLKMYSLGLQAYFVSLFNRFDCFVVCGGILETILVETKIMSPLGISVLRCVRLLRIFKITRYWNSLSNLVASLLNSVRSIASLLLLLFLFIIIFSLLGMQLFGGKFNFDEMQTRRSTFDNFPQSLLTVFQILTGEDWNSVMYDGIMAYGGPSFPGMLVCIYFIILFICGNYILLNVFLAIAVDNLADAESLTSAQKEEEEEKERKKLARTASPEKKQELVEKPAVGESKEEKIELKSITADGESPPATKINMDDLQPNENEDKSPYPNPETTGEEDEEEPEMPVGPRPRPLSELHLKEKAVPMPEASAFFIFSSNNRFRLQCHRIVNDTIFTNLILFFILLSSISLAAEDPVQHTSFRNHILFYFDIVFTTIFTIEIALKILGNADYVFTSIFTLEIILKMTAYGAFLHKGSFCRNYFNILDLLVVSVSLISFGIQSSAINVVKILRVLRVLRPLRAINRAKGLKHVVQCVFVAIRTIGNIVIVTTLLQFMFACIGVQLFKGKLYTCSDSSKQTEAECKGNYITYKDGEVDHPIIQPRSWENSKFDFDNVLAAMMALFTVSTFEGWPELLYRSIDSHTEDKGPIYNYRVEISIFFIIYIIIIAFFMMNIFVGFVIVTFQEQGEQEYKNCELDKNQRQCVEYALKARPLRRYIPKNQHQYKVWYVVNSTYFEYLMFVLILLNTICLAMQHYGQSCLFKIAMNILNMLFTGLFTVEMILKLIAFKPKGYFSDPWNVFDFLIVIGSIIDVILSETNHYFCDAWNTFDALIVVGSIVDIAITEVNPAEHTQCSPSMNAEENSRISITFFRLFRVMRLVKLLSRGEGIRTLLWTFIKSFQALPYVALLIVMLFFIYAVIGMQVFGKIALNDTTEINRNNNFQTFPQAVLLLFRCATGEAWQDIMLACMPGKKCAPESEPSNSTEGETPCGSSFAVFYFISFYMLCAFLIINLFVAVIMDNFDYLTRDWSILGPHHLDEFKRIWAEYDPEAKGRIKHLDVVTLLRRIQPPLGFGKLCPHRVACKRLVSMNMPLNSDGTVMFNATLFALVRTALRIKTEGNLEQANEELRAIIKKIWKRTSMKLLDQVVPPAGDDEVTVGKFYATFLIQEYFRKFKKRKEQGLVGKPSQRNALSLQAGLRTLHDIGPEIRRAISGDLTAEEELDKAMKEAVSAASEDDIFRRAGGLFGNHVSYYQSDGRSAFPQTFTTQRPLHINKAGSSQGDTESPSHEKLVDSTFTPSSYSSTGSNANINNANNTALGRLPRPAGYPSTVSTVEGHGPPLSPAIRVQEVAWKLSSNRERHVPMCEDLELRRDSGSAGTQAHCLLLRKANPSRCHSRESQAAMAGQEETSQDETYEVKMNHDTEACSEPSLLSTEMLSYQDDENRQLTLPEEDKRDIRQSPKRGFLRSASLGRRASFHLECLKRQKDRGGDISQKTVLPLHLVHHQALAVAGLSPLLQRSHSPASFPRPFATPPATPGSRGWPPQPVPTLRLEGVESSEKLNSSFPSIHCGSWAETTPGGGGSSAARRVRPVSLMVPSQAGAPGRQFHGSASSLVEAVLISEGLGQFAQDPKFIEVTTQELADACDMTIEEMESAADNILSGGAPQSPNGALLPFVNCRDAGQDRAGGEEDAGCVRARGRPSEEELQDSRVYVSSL
Description: Inhibition of human Cav1.2

in vivo [14] = conditions: rat, iv, 125 ug
Description: Clearance in rat at 125 ug, iv measured after 1 hrs by LC-MS analysis

in vivo [15] = conditions: rat, iv, 125 ug; remark: listed apart in the source
Description: Volume of distribution at steady state in rat at 125 ug, iv measured after 1 hrs by LC-MS analysis

in vivo [16] = conditions: male, Dunkin-Hartley, guinea pig, inhaled or intranasal, 1 mM
Description: Toxicity in male albino Dunkin-Hartley guinea pig model assessed as inhibition of carbachol-induced salivation at 1 mM, preadministered with compound for 10 mins via aerosol followed by anesthesia treatment 3 hrs post compound addition and further treated with carbachol and measured every 5 mins for 4 times

in vivo [17] = conditions: male, Dunkin-Hartley, guinea pig, inhaled or intranasal, 3 mM
Description: Toxicity in male albino Dunkin-Hartley guinea pig model assessed as inhibition of carbachol-induced salivation at 3 mM, preadministered with compound for 10 mins via aerosol followed by anesthesia treatment 3 hrs post compound addition and further treated with carbachol and measured every 5 mins for 4 times

in vitro [18] = conditions: human, hepatocytes
Description: Metabolic stability in human hepatocytes assessed as clearance measured per 10^6 cells at 1 uM incubated for 90 mins by LC-MS/MS analysis

in vitro [19] = conditions: rat, hepatocytes
Description: Metabolic stability in rat hepatocytes assessed as clearance measured per 10^6 cells at 1 uM incubated for 90 mins by LC-MS/MS analysis

in vitro [20] = conditions: human, plasma
Description: Stability in human plasma assessed as half-life at 5 uM incubated for 120 mins by LC-MS/MS analysis

in vitro [21] = conditions: rat, plasma
Description: Stability in rat plasma assessed as half-life at 5 uM incubated for 120 mins by LC-MS/MS analysis

in vitro [22] = conditions: guinea pig, plasma
Description: Stability in guinea pig plasma assessed as half-life at 5 uM incubated for 120 mins by LC-MS/MS analysis

Cavia porcellus [23] = species on record: Cavia porcellus; assay: animal or person; conditions: albino Dunkin-Hartley, 1 h, read-out: INH
Description: Inhibition of acetylcholine induced bronchoconstriction in male albino Dunkin-Hartley guinea pig model at 0.3 nmol/kg, IT(Intratracheal) preadministered with compound followed by acetylcholine addition at 5 to 30 mins in presence of ICI-118551 and measured 1 hrs post compound treatment relative to control

Cavia porcellus [24] = species on record: Cavia porcellus; assay: animal or person; conditions: albino Dunkin-Hartley, 1 h
Description: Bronchodilating effect in acetylcholine induced male albino Dunkin-Hartley guinea pig model assessed as maximal efficacy at 0.3 nmol/kg, IT(Intratracheal) administered with compound followed by acetylcholine addition at 5 to 30 mins in presence of ICI-118551 and measured 1 hrs post compound treatment relative to control

Cavia porcellus [25] = species on record: Cavia porcellus; assay: animal or person; conditions: albino Dunkin-Hartley, 16 h, read-out: INH
Description: Inhibition of acetylcholine induced bronchoconstriction in male albino Dunkin-Hartley guinea pig model at 0.3 nmol/kg, IT(Intratracheal) preadministered with compound followed by acetylcholine addition at 5 to 30 mins in presence of ICI-118551 and measured 16 hrs post compound treatment relative to control

[26] = molecular target: Muscarinic acetylcholine receptor M3 (Cavia porcellus, UniProt Q8VH26); assay: Antagonist activity at M3 receptor in male albino Dunkin-Hartley guinea pig trachea assessed as inhibition of carbachol-induced smooth muscle contraction in presence of propranolol
Sequence of Muscarinic acetylcholine receptor M3 (Cavia porcellus, UniProt Q8VH26) (Q8VH26 whole entry): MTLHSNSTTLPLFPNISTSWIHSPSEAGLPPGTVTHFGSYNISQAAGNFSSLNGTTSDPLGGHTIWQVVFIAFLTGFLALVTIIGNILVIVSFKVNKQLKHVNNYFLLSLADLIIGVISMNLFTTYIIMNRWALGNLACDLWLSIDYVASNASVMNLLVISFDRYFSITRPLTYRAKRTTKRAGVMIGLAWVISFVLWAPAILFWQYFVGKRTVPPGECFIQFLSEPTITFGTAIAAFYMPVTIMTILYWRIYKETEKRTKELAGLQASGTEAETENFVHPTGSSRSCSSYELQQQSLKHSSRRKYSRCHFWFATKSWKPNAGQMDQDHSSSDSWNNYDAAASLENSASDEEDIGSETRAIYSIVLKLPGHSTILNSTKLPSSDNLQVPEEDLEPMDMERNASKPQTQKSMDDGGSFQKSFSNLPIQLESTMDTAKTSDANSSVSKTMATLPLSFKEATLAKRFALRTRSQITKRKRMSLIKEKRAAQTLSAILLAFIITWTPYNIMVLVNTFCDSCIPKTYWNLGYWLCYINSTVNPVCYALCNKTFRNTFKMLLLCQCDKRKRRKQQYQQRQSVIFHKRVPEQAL

Cavia porcellus [27] = assay: Inhibition of histamine induced bronchoconstriction in male albino Dunkin-Hartley guinea pig model at 1 nmol/kg, IT(Intratracheal) preadministered with compound followed by histamine addition at 5 to 30 mins and measured 1 hrs post compound treatment relative to control; conditions: read-out: INH
Cavia porcellus [28] = assay: Inhibition of acetylcholine induced bronchoconstriction in male albino Dunkin-Hartley guinea pig model at 1 nmol/kg, IT(Intratracheal) preadministered with compound followed by acetylcholine addition at 5 to 30 mins and measured 1 hrs post compound treatment relative to control; conditions: read-out: INH
Cavia porcellus [29] = assay: Inhibition of histamine induced bronchoconstriction in male albino Dunkin-Hartley guinea pig model at 1 nmol/kg, IT(Intratracheal) preadministered with compound followed by histamine addition at 5 to 30 mins and measured 24 hrs post compound treatment relative to control; conditions: read-out: INH
Cavia porcellus [30] = assay: Inhibition of acetylcholine induced bronchoconstriction in male albino Dunkin-Hartley guinea pig model at 1 nmol/kg, IT(Intratracheal) preadministered with compound followed by acetylcholine addition at 5 to 30 mins and measured 24 hrs post compound treatment relative to control; conditions: read-out: INH
[31] = Metabolic stability in rat hepatocytes assessed as parent compound remaining at 10 uM incubated for 60 mins by LC-MS/MS analysis
[32] = Metabolic stability in human hepatocytes assessed as parent compound remaining at 10 uM incubated for 60 mins by LC-MS/MS analysis
[33] = Stability in rat plasma assessed as parent compound remaining at 10 uM incubated for 60 mins by LC-MS/MS analysis
[34] = Stability in human plasma assessed as parent compound remaining at 10 uM incubated for 60 mins by LC-MS/MS analysis
[35] = Drug concentration in male albino Dunkin-Hartley guinea pig lung at 50 nmol/kg, IT(Intratracheal) measured after 0.083 hrs; conditions: inhaled or intranasal
[36] = Drug concentration in male albino Dunkin-Hartley guinea pig lung at 50 nmol/kg, IT(Intratracheal) measured after 3 hrs; conditions: inhaled or intranasal
[37] = Drug concentration in male albino Dunkin-Hartley guinea pig lung at 50 nmol/kg, IT(Intratracheal) measured after 24 hrs; conditions: inhaled or intranasal
[38] = Protein binding in human plasma at 5 uM incubated for 4 hrs by LC-MS/MS analysis
[39] = molecular target: Muscarinic acetylcholine receptor M3 (Homo sapiens, UniProt P20309)
Sequence of Muscarinic acetylcholine receptor M3 (Homo sapiens, UniProt P20309) (P20309 whole entry): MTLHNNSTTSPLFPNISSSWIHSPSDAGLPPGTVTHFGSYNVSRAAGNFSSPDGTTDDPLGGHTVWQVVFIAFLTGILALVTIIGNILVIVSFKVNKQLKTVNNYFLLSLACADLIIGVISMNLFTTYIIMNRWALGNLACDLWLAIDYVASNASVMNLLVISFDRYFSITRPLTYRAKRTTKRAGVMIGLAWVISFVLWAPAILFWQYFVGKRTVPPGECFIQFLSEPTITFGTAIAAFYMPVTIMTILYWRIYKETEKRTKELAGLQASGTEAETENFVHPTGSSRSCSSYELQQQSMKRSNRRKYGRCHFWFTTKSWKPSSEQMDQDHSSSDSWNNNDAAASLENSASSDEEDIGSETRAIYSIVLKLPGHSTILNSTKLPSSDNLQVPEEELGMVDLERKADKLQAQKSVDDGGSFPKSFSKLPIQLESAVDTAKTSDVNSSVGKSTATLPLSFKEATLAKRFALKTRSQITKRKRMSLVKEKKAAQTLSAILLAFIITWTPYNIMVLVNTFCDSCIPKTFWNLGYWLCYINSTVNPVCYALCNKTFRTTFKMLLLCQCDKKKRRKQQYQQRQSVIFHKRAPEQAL
Description: Displacement of Scopolamine methyl chloride,[N-methyl-3H] from human muscarinic M3 receptor assessed as inhibition constant incubated for 2 hrs by Microbeta scintillation counter

in vitro [40] = conditions: guinea pig, lung S9 fraction
Description: Stability in guinea pig lung S9 fraction assessed as half-life at 1 uM incubated for 60 mins by LC-MS/MS analysis

in vitro [41] = conditions: guinea pig, hepatocytes
Description: Metabolic stability in guinea pig hepatocytes assessed as clearance measured per 10^6 cells at 1 uM incubated for 90 mins by LC-MS/MS analysis

in vitro [42] = conditions: human, lung S9 fraction
Description: Stability in human lung S9 fraction assessed as half-life at 1 uM incubated for 60 mins by LC-MS/MS analysis

in vitro [43] = conditions: rat, lung S9 fraction
Description: Stability in rat lung S9 fraction assessed as half-life at 1 uM incubated for 60 mins by LC-MS/MS analysis

Cavia porcellus [44] = species on record: Cavia porcellus; assay: animal or person; conditions: albino Dunkin-Hartley, 1 h, read-out: INH; remark: listed apart in the source
Description: Inhibition of acetylcholine induced bronchoconstriction in male albino Dunkin-Hartley guinea pig model at 1 nmol/kg, IT(Intratracheal) preadministered with compound followed by acetylcholine addition at 5 to 30 mins in presence of ICI-118551 and measured 1 hrs post compound treatment relative to control

Cavia porcellus [45] = species on record: Cavia porcellus; assay: animal or person; conditions: albino Dunkin-Hartley, 24 h, read-out: INH
Description: Inhibition of acetylcholine induced bronchoconstriction in male albino Dunkin-Hartley guinea pig model at 1 nmol/kg, IT(Intratracheal) preadministered with compound followed by acetylcholine addition at 5 to 30 mins in presence of ICI-118551 and measured 24 hrs post compound treatment relative to control

Cavia porcellus [46] = assay: Inhibition of histamine induced bronchoconstriction in male albino Dunkin-Hartley guinea pig model at 3 nmol/kg, IT(Intratracheal) preadministered with compound followed by histamine addition at 5 to 30 mins and measured 1 hrs post compound treatment relative to control; conditions: read-out: INH
Cavia porcellus [47] = assay: Inhibition of acetylcholine induced bronchoconstriction in male albino Dunkin-Hartley guinea pig model at 3 nmol/kg, IT(Intratracheal) preadministered with compound followed by acetylcholine addition at 5 to 30 mins and measured 1 hrs post compound treatment relative to control; conditions: read-out: INH
[48] = Protein binding in guinea pig plasma at 5 uM incubated for 4 hrs by LC-MS/MS analysis
Cavia porcellus [49] = assay: Inhibition of histamine induced bronchoconstriction in male albino Dunkin-Hartley guinea pig model at 3 nmol/kg, IT(Intratracheal) preadministered with compound followed by histamine addition at 5 to 30 mins and measured 16 hrs post compound treatment relative to control; conditions: read-out: INH
Cavia porcellus [50] = assay: Inhibition of acetylcholine induced bronchoconstriction in male albino Dunkin-Hartley guinea pig model at 3 nmol/kg, IT(Intratracheal) preadministered with compound followed by acetylcholine addition at 5 to 30 mins and measured 16 hrs post compound treatment relative to control; conditions: read-out: INH
Cavia porcellus [51] = species on record: Cavia porcellus; assay: animal or person; conditions: albino Dunkin-Hartley, 1 h, read-out: INH; remark: listed apart in the source
Description: Inhibition of acetylcholine induced bronchoconstriction in male albino Dunkin-Hartley guinea pig model at 3 nmol/kg, IT(Intratracheal) preadministered with compound followed by acetylcholine addition at 5 to 30 mins in presence of ICI-118551 and measured 1 hrs post compound treatment relative to control

Cavia porcellus [52] = species on record: Cavia porcellus; assay: animal or person; conditions: albino Dunkin-Hartley, 16 h, read-out: INH; remark: listed apart in the source
Description: Inhibition of acetylcholine induced bronchoconstriction in male albino Dunkin-Hartley guinea pig model at 3 nmol/kg, IT(Intratracheal) preadministered with compound followed by acetylcholine addition at 5 to 30 mins in presence of ICI-118551 and measured 16 hrs post compound treatment relative to control

Cavia porcellus [53] = assay: Inhibition of acetylcholine induced bronchoconstriction in male albino Dunkin-Hartley guinea pig model at 3 nmol/kg, IT(Intratracheal) preadministered with compound followed by acetylcholine addition at 5 to 30 mins and measured 24 hrs post compound treatment relative to control; conditions: read-out: INH
[54] = Protein binding in rat plasma at 5 uM incubated for 4 hrs by LC-MS/MS analysis
in vivo [55] = conditions: male, Dunkin-Hartley, guinea pig, inhaled or intranasal, 0.3 mM
Description: Toxicity in male albino Dunkin-Hartley guinea pig model assessed as inhibition of carbachol-induced salivation at 0.3 mM, preadministered with compound for 10 mins via aerosol followed by anesthesia treatment 3 hrs post compound addition and further treated with carbachol and measured every 5 mins for 4 times

| SMILES | IC50 [1] [nM] | IC50 (Trachea) [nM] | inhibition in vivo at 0.0003 µmol/kg (Cavia porcellus [2]) [%] | inhibition in vivo at 0.0003 µmol/kg (Cavia porcellus [3]) [%] | remaining at 1 h, 1 µM [6] [%] | Ki [10] [nM] | hepatocyte CLint at 1.5 h, 1 µM (in vitro [18]) [µL/min/1e6 cells] | hepatocyte CLint at 1.5 h, 1 µM (in vitro [19]) [µL/min/1e6 cells] | half-life at 2 h, 5 µM (in vitro [20]) [min] | half-life at 2 h, 5 µM (in vitro [21]) [min] | half-life at 2 h, 5 µM (in vitro [22]) [min] | inhibition in vivo at 0.0003 µmol/kg (Cavia porcellus [23]) [%] | IC50 [26] [nM] | inhibition in vivo at 0.001 µmol/kg (Cavia porcellus [28]) [%] | fraction unbound at 4 h, 5 µM [38] | Ki [39] [nM] | half-life at 1 h, 1 µM (in vitro [40]) [min] | hepatocyte CLint at 1.5 h, 1 µM (in vitro [41]) [µL/min/1e6 cells] | half-life at 1 h, 1 µM (in vitro [42]) [min] | half-life at 1 h, 1 µM (in vitro [43]) [min] | further results |
| --- | --- | --- | --- | --- | --- | --- | --- | --- | --- | --- | --- | --- | --- | --- | --- | --- | --- | --- | --- | --- | --- |
| CN1CCC[C@@H](OC(=O)[C@](O)(c2ccccc2)c2cccc(OCCCNC(=O)c3ccc(CNC[C@H](O)c4ccc(O)c5[nH]c(=O)ccc45)cc3)c2)C1 | 0.1 | 0.126 | 89 | 89 | 91.1 | 0.0251 | 3 | 12 | > 150 | 9 | 78 | 78 | – | – | – | – | – | – | – | – | Emax at 0.0003 µmol/kg (Cavia porcellus [4]): 89%; Emax at 0.0003 µmol/kg (Cavia porcellus [5]): 89%; inhibition in vivo at 0.0003 µmol/kg (Cavia porcellus [7]): 57%; inhibition in vivo at 0.0003 µmol/kg (Cavia porcellus [8]): 84%; half-life [9]: 1500 min; IC50 [11]: 128 µM; IC50 [12]: 310 µM; IC50 [13]: 314 µM; clearance at 1 h (in vivo [14]): 75 mL/min/kg; Vd at 1 h (in vivo [15]): 0.75 L/kg; inhibition at 3.167 h, 1000 µM (in vivo [16]): 33%; inhibition at 3.167 h, 3000 µM (in vivo [17]): 43%; Emax at 0.0003 µmol/kg (Cavia porcellus [24]): 89%; inhibition in vivo at 0.0003 µmol/kg (Cavia porcellus [25]): 54% |
| O=C(NCCCOc1cccc([C@](O)(C(=O)OCC2CCN(Cc3ccccc3)CC2)c2ccccc2)c1)c1ccc(CNC[C@H](O)c2ccc(O)c3[nH]c(=O)ccc23)cc1 | 0.316 | 0.501 | 34 | 49 | 14 | 0.1 | 25 | 30 | > 150 | 27 | < 5 | 23 | 0.398 | 94 | 0.01 | 0.398 | 21 | 316 | 193 | 142 | inhibition in vivo at 0.001 µmol/kg (Cavia porcellus [27]): 66%; inhibition in vivo at 0.001 µmol/kg (Cavia porcellus [29]): 5%; inhibition in vivo at 0.001 µmol/kg (Cavia porcellus [30]): 95%; remaining at 1 h, 10 µM [31]: 70%; remaining at 1 h, 10 µM [32]: 91%; remaining at 1 h, 10 µM [33]: 67%; remaining at 1 h, 10 µM [34]: > 99%; concentration at 0.083 h [35]: 1270 ng/g; concentration at 3 h [36]: 1160 ng/g; concentration at 24 h [37]: 1170 ng/g; inhibition in vivo at 0.001 µmol/kg (Cavia porcellus [44]): 87%; inhibition in vivo at 0.001 µmol/kg (Cavia porcellus [45]): 79% |
| O=C(NCCCOc1cccc([C@@](O)(C(=O)OCC2CCN(Cc3ccccc3)CC2)c2ccccc2)c1)c1ccc(CNCC(O)c2ccc(O)c3[nH]c(=O)ccc23)cc1 (some centres not stated) | 0.0501 | 0.251 | – | – | 91.9 | 0.0501 | 18 | 33 | > 150 | 11 | > 150 | – | 10 | – | 0.01 | 10 | 280 | 41 | 138 | 271 | inhibition in vivo at 0.003 µmol/kg (Cavia porcellus [46]): 86%; inhibition in vivo at 0.003 µmol/kg (Cavia porcellus [47]): 93%; fraction unbound at 4 h, 5 µM [48]: 0.01; inhibition in vivo at 0.003 µmol/kg (Cavia porcellus [49]): 39%; inhibition in vivo at 0.003 µmol/kg (Cavia porcellus [50]): 56%; inhibition in vivo at 0.003 µmol/kg (Cavia porcellus [51]): 70%; inhibition in vivo at 0.003 µmol/kg (Cavia porcellus [52]): 39% |
| O=C(c1ccc(OCc2ccc(CNC[C@H](O)c3ccc(O)c4[nH]c(=O)ccc34)cc2)cc1)N1CCC(C(=O)OC2CN3CCC2CC3)(c2ccccc2)CC1 (single isomer, unassigned) | 0.501 | 1 | – | – | – | 0.2 | 15 | 27 | > 150 | > 150 | 109 | – | 2.51 | 60 | 0.02 | 0.251 | 216 | – | 280 | 217 | inhibition in vivo at 0.003 µmol/kg (Cavia porcellus [46]): 21%; inhibition in vivo at 0.003 µmol/kg (Cavia porcellus [47]): 93%; inhibition in vivo at 0.003 µmol/kg (Cavia porcellus [53]): 68%; fraction unbound at 4 h, 5 µM [54]: 0.15; inhibition in vivo at 0.003 µmol/kg (Cavia porcellus [51]): 90% |
| C[N+]1(C)[C@@H]2C[C@@H](OC(=O)C(O)(c3cccs3)c3cccs3)C[C@H]1[C@@H]1O[C@@H]12 [TIOTROPIUM BROMIDE] | – | – | – | – | – | – | – | – | – | – | – | – | – | – | – | – | – | – | – | – | inhibition at 3.167 h, 300 µM (in vivo [55]): 77% |
